Data: the supplement of paper PMC9386025

Assays:
Experiment in all cases: drug sensitivity score (DSS) (DSS (dimensionless)); higher = more sensitive (stronger drug response)
JHOS2 = test system: JHOS2
Method in brief: (§1)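 Ovarian cancer cell lines, with shRNA induced by 100 ng/ml doxycycline for at least three days, and patient-derived cultures were seeded at 1 000 – 1 500 cells per well in 384-well plates holding drugs pre-plated in five concentrations over a 10,000-fold range. After three days at 37 °C and 5.0 % CO2, viability was read as CellTiter-Glo luminescence on a PHERAstar FS. Each drug's dose-response curve was summarised as a drug sensitivity score calculated as previously described.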

FIMM-PDC4 = patient-derived ovarian cancer cells; conditions: genetic perturbation: none (patient-derived cell culture)
Method in brief: as §1

FIMM-PDC3 = patient-derived ovarian cancer cells; conditions: genetic perturbation: none (patient-derived cell culture)
Method in brief: as §1

FIMM-PDC6 = patient-derived ovarian cancer cells; conditions: genetic perturbation: none (patient-derived cell culture)
Method in brief: as §1

OVSAHO = test system: OVSAHO
Method in brief: as §1

FIMM-PDC1 = patient-derived ovarian cancer cells; conditions: genetic perturbation: none (patient-derived cell culture)
Method in brief: as §1

FIMM-PDC5 = patient-derived ovarian cancer cells; conditions: genetic perturbation: none (patient-derived cell culture)
Method in brief: as §1

Kuramochi = test system: Kuramochi
Method in brief: as §1

FIMM-PDC7 = patient-derived ovarian cancer cells; conditions: genetic perturbation: none (patient-derived cell culture)
Method in brief: as §1

[1] = genetic perturbation: DOX-induced PTK7 shRNA knockdown
[2] = genetic perturbation: DOX-induced control shRNA

Compound	drug sensitivity score (JHOS2; [1])	drug sensitivity score (JHOS2; [2])	drug sensitivity score (FIMM-PDC4)	drug sensitivity score (FIMM-PDC3)	drug sensitivity score (FIMM-PDC6)	drug sensitivity score (OVSAHO; [1])	drug sensitivity score (OVSAHO; [2])	drug sensitivity score (FIMM-PDC1)	drug sensitivity score (FIMM-PDC5)	drug sensitivity score (Kuramochi; [1])	drug sensitivity score (Kuramochi; [2])	drug sensitivity score (FIMM-PDC7)
Nc1ncnc2c1nc(Cl)n2[C@@H]1O[C@H](CO)[C@@H](O)[C@H]1O [8-chloro-adenosine]	12.9	9.4	5.9	6	10.4	18.4	6.9	7.45	20.2	5.75	12.1	13.8
Cc1ccc(NS(=O)(=O)c2cccc(C#N)c2)c2[nH]cc(C#N)c12 [E7820]	9.6	9.5	3	18.3	5.9	3	1.1	2.9	6.4	2.4	1.5	12.2
Nc1nc(Cl)nc2c1ncn2[C@@H]1O[C@H](CO)[C@@H](O)[C@@H]1F [Clofarabine]	15.1	10.3	7.4	6.1	3.2	2.5	3.4	3.15	13.6	< 0	< 0	3.2
Oc1nc(-c2ccc(C(F)(F)F)cc2)nc2c1CSCC2 [XAV-939]	< 0	0.7	1.6	1.5	4.1	2.1	3	1.1	6.3	0.35	0.1	10.8
CN1CC[C@H](c2c(O)cc(O)c3c(=O)cc(-c4ccccc4Cl)oc23)[C@H](O)C1 [Alvocidib]	14.4	14.5	17.4	15.8	16.7	16.7	14.7	16.6	22.2	16.6	14.8	20.4
Cc1sc2c(c1C)C(c1ccc(Cl)cc1)=N[C@@H](CC(=O)Nc1ccc(O)cc1)c1nnc(C)n1-2 [Birabresib]	9.6	8.1	5.6	4.3	3.7	7.3	13.4	4.2	12.7	13.9	4.8	8.3
Nc1ncn([C@@H]2O[C@H](CO)[C@@H](O)[C@H]2O)c(=O)n1 [Azacitidine]	2.2	3.2	2.8	5.2	7.7	3.8	< 0	4.15	6.4	1.05	0.6	9.3
O=C(O)C(=O)O.[NH-][C@@H]1CCCC[C@H]1[NH-].[Pt+2] [Oxaliplatin]	8.2	6.2	5	17.3	7.8	9.9	5.9	5.4	11.2	8.65	5.8	11.5
CN(C)C1CCN(C(=O)c2ccc(NC(=O)Nc3ccc(-c4nc(N5CCOCC5)nc(N5CCOCC5)n4)cc3)cc2)CC1 [Gedatolisib]	6.9	11.7	15.7	9	16.9	12.7	13.2	10.5	16.9	11.3	10.8	10.7
COc1ccccc1S(=O)(=O)Nc1ccc2c(c1)CN(C)C(=O)N2 [PFI-1]	2.1	3.4	0.9	1.6	1.3	4.4	8.4	1.2	4.9	7.65	5	1.3
CN[C@@H](C)C(=O)N[C@H](C(=O)N1CCC[C@H]1c1nc(C(=O)c2ccc(F)cc2)cs1)C1CCCCC1 [NVP-LCL161]	26	20.4	1.7	15.7	6.9	6	4.1	14.1	2.7	3.65	4.2	5.1
CCNC(=O)C[C@@H]1N=C(c2ccc(Cl)cc2)c2cc(OC)ccc2-n2c(C)nnc21 [Molibresib]	6.8	5.3	3.3	3.5	4.2	6	9.4	1.7	7.6	8.65	4	6.6
CN(Cc1cnc2nc(N)nc(N)c2n1)c1ccc(C(=O)N[C@@H](CCC(=O)O)C(=O)O)cc1 [Methotrexate]	< 0	< 0	< 0	< 0	< 0	< 0	4.6	2.2	< 0	0.45	1.5	< 0
COc1cc(OC)c(/C=C/S(=O)(=O)Cc2ccc(OC)c(NCC(=O)O)c2)c(OC)c1 [Rigosertib]	18.3	13	23.6	19	15.1	19.1	9.2	13.2	20	17.9	6.4	10.6
COc1c(C)cnc(Cn2cnc3c(Cl)nc(N)nc32)c1C [BIIB021]	16.5	12.6	18.8	12.1	13.5	< 0	8.1	12.8	18	10.4	0.9	14.6
COc1cc(Nc2ncc3c(n2)-c2ccc(Cl)cc2C(c2c(F)cccc2OC)=NC3)ccc1C(=O)O [Alisertib]	1.9	0.9	3.9	6.2	< 0	7	2.4	0.85	7.2	6.25	4.2	< 0
Cn1cc(C2=Nc3cc(NC(=O)C(N)C4CCCCC4)cc4c3C2=CNNC4=O)cn1 (stereo not drawn)	4.7	4.9	6.2	16.4	6.4	9.2	5.1	12.8	10.7	7.35	3.5	6.8

Compound	drug sensitivity score (JHOS2; [1])	drug sensitivity score (JHOS2; [2])	drug sensitivity score (FIMM-PDC4)	drug sensitivity score (FIMM-PDC3)	drug sensitivity score (FIMM-PDC6)	drug sensitivity score (OVSAHO; [1])	drug sensitivity score (OVSAHO; [2])	drug sensitivity score (FIMM-PDC1)	drug sensitivity score (FIMM-PDC5)	drug sensitivity score (Kuramochi; [1])	drug sensitivity score (Kuramochi; [2])	drug sensitivity score (FIMM-PDC7)
O=C(Nc1cccc(Nc2ncc(Br)c(NCCc3cnc[nH]3)n2)c1)N1CCCC1 [BX-912]	5.5	2.4	3.9	1.2	2.2	3.8	2.2	2.85	6.9	2.35	3.7	9.2
CO[C@@H](C)Cn1c(=O)n(C)c2cnc3ccc(-c4cncc(C(C)(C)O)c4)cc3c21	7.2	8.5	12	6.9	12.6	11.3	8	6.85	16.8	8.4	8.4	11.6
CCN(CC)CCCC(C)Nc1c2ccc(Cl)cc2nc2ccc(OC)cc12 (stereo not drawn) [Mepacrine]	18.8	12.1	17.1	13.8	15.9	15.2	11.7	13.6	18	12.7	10.8	12.3
CC1(C)CC[C@]2(NC(=O)C(C)(F)F)CC[C@]3(C)[C@H](C(=O)C=C4[C@@]5(C)C=C(C#N)C(=O)C(C)(C)[C@@H]5CC[C@]43C)[C@@H]2C1 [Omaveloxolone]	10.1	16.2	9.9	19.3	14.3	19.8	11.9	13.5	11.3	12.2	14.1	15.8
O=C(NC1CCNCC1)c1n[nH]cc1NC(=O)c1c(Cl)cccc1Cl [AT7519]	14	14	16.3	13.6	20.5	17.2	14.5	14.1	20.5	15	7.7	18.2
COc1ccc(-c2ccc3ncc4c(c3c2)n(-c2ccc(N3CCNCC3)c(C(F)(F)F)c2)c(=O)n4C)cn1 [NVP-BGT226]	11	15	19.7	12.6	21.5	17.8	16.2	12.2	25.6	10.1	13.4	22.4
CN(C)Cc1ccc(S(=O)(=O)n2ccc(/C=C/C(=O)NO)c2)cc1 [Resminostat]	7.8	7.1	4.2	8.7	8.8	9.3	6.9	6.7	10	9.8	4.8	7.2
CCC1=C[C@@H]2CN(C1)Cc1c([nH]c3ccccc13)[C@@](C(=O)OC)(c1cc3c(cc1OC)N(C)[C@H]1[C@@](O)(C(=O)OC)[C@H](OC(C)=O)[C@]4(CC)C=CCN5CC[C@]31[C@@H]54)C2 [Vinorelbine]	19.4	17.1	26.7	26.2	18.6	22.6	18.5	19.2	27.2	20.3	7.2	12.8
CNC(=O)CN1CCC(Oc2cc3c(Nc4cccc(Cl)c4F)ncnc3cc2OC)CC1 [Sapitinib]	< 0	< 0	16.3	8.8	11.4	< 0	< 0	0.6	16.5	0.5	< 0	10.1
CN1CCN(c2cc(C(=O)Nc3ccc4c(c3)-c3c(c(C(N)=O)nn3-c3ccc(F)cc3)CC4)c(Cl)cn2)CC1 [PHA 408]	8.3	< 0	2.7	4.7	4.8	7.3	2.8	< 0	3.8	2.75	2.3	2.8
Nc1nc2[nH]cnc2c(=S)[nH]1 [Thioguanine]	1.9	1	6.6	< 0	2.9	4.9	8.1	5.75	6.4	9.75	7	4.7
CN(C)C/C=C/C(=O)Nc1cc2c(Nc3ccc(F)c(Cl)c3)ncnc2cc1O[C@H]1CCOC1 [Afatinib]	< 0	1.8	15.9	11	15.8	1.9	1.9	4.1	21.9	1.7	1.5	13.6
C=CC(=O)N1CC/C(=C\c2ccc(F)c([N+](=O)[O-])c2)C(=O)/C(=C/c2ccc(F)c([N+](=O)[O-])c2)C1 [VLX1570]	25.9	15.3	16.9	18.5	19.6	23.2	19.4	12.1	22.3	23.4	16.4	20.5
COc1cccc(OCCCN)c1-c1cc(Nc2cnc(C#N)cn2)n[nH]1 [Prexasertib]	23.3	7.3	19.2	27.1	15.4	17.4	11.1	22.6	24.3	22.4	8.8	14.3
CCCCc1nc2cc(/C=C/C(=O)NO)ccc2n1CCN(CC)CC [Pracinostat]	13.4	11.9	7.3	13.2	13.7	14.2	11.2	10.8	14.8	18	7.9	11.1
COc1ccc(S(=O)(=O)Nc2cccnc2Nc2ccc(O)cc2)cc1 [ABT-751]	10.2	6.3	9.6	9.7	5.1	7	5.4	8.8	11.8	7.95	3.6	6.8
CC(C)[C@H](C(=O)Nc1ccc(C(=O)NO)cc1)c1ccccc1 [AR-42]	9.1	8.5	5.8	10	10.5	12.4	9	9.25	10.9	12.8	6.6	9.8
